# Reference: EP4670723A1, “PI[…] USE IN THE TREATMENT OF OSTE[…] NON-HUMAN MAMMALS” (Vetbiolix, priority 2024, dated 2025)
# Read-outs that look alike come from different tables or passages of the source.
# What was measured:
# [1] = test system: dogs with osteoarthritis (OA); assay: multicentric, non-comparative, randomized proof of concept study, 90 days oral treatment of dogs with osteoarthritis; assay type: in vivo, dog
# [2] = test system: monoidoacetate (MIA) experimental rat models; conditions: cited from earlier work
# [3] = test system: dogs with osteoarthritis (OA); assay: multicentric, non-comparative, randomized proof of concept study, 90 days oral treatment of dogs with osteoarthritis; assay type: in vivo, dog; conditions: for Activity: Dog
# Method: This was a multicentric, non-comparative, randomized proof of concept study in which 15 dogs with osteoarthritis (OA) were treated with piclidenosone (VBX1000) for 90 days.
# […] Two intermediate visits were included for clinical examination and for calculating OA scores.
# The primary objective of this study was to assess the efficacy of piclidenosone to reduce OA symptoms severity after 90 days of treatment. For that purpose, OA symptoms and motility were scored by the owner using Liverpool Osteoarthritis in Dogs (LOAD) questionnaire at Day-0, Day-30, Day-60 and Day-90. […]
# • Inclusion criteria • ∘ The owner approved and signed the informed consent form prior to the participation of his/her dog in the study; • ∘ Dog older than 18 months; • ∘ Dog with a Body Condition score lower than 8 (on a 9 point-scale); • ∘ Dog with a symptomatic unifocal or multifocal osteoarthritis, characterized by the presence of osteophyte on at least one site on radiographic views; • ∘ LOAD mobility total score of ≥ 11 at visit V2 (Day 0). • Exclusion criteria • ∘ Animals intended for breeding or known to be pregnant or lactating; • ∘ Dog with severe OA which requires concomitant treatment; • ∘ Presence of complete cranial cruciate ligament rupture; • ∘ Breeds at risk of MDR1 gene mutation (MDR1 genetic test required before screening of a dog from known affected breed: Collie, Border Collie, Australian and English Shepherd, German Shepherd, Long-Haired Whippet, Shetland Sheepdog); • ∘ History of orthopaedic surgery including complete cranial cruciate ligament rupture surgically treated with Tibial Tuberosity Advancement (TTA) or Tibial Plateau Leveling Osteotomy (TPLO) or elbow debridement within 3 months prior to inclusion; • ∘ Presence of musculoskeletal lesions (e.g., glycogenosis, primary muscular dystrophy) or untreated neoplasia prior to inclusion; • ∘ Presence of concurrent systemic disease such as neurologic, hepatic, renal or cardiac disease; • ∘ Dog under physical therapy (including acupuncture) for orthopaedic indication unless a 1-week wash-out period is applied prior to visit V1 (between D-21 and D-14); • ∘ Dog treated with methotrexate; • ∘ Dog treated with nonsteroidal anti-inflammatory drugs unless a 2-weeks wash-out period is applied prior to visit V1 (between D-21 and D-14); • ∘ Dog that received mavacoxib or enflicoxib within 3 months prior to visit V1 (between D-21 and D-14); • ∘ Dog treated with short-acting corticosteroids (i.e., hydrocortisone) unless a 2-weeks wash-out period is applied prior to visit V1 (between D-21 and D-14); • ∘ Dog treated with intermediate-acting corticosteroids (i.e., prednisone, prednisolone, methylprednisolone) unless a 4-weeks wash-out period is applied prior to visit V1 (between D-21 and D-14); • ∘ Dog treated with long-acting corticosteroids (i.e., dexamethasone) unless a 12-weeks wash-out period is applied prior to visit V1 (between D-21 and D-14); • ∘ Dog treated with any intra-articular injection in the joint under study within 2 months prior to visit V1 (between D-21 and D-14); • ∘ Dog treated with a subcutaneous injection of bedinvetmab unless a 4-week wash-out periods is applied prior to visit V1 (between D-21 and D-14); • ∘ Dog treated with OA modifying diet and/or food supplements (i.e., glycosaminoglycans, glucosamine and chondroitin sulphate or other) unless its administration has been regular during the month preceding visit V1 (between D-21 and D-14) and will be continued during the study duration; • ∘ Dog unable to walk on a leash. […]
# [4] = test system: patients with osteoarthritis of the knee; conditions: 1000 µg (14.5 µg/kg) twice daily orally for 12 weeks; trial discontinued; cited from earlier work
# [5] = test system: human patients; conditions: cited from earlier work; for Activity: Human
# [6] = 100 µg/kg bid, 90 days vs baseline
# [7] = oral, 100 µg/kg body weight twice a day
structure (smiles),measurement,setting,value
"CNC(=O)[C@H]1O[C@@H](n2cnc3c(NCc4cccc(I)c4)ncnc32)[C@H](O)[C@@H]1O [piclidenoson, 1-Deoxy-1-[6-[[(3-iodophenyl)methyl]amino]-9H-purin-9-yl]-N-methyl-β-D-ribofuranuronamide]",proportion of patient with low NRS2 (pain score),[1]; [6],non-significant increase
same,LOAD score,"[1]; 500 µg/kg bid oral, Day-90, N=9, baseline 22.9±7.2 at Day-0, p<0.01, primary endpoint met",14.9±10.6
same,"proportion of patients with low scores, NRS2 (pain score)","[1]; 500 µg/kg bid, 90 days vs baseline, p<0.05 Fisher exact test",reached statistical significance
same,"proportion of patients with low scores, NRS1 (lameness score)","[1]; 500 µg/kg bid, 90 days vs baseline, statistical significance",not for NRS1
same,Activity,"[2]; Rat, Bid Dose 100 µg/kg",Yes
same,NF-kappaB signaling pathway,[2]; [7],deregulated
same,apoptosis of inflammatory cells,[2]; [7],induced apoptosis
same,cartilage protection,[2]; [7],cartilage protective agent
same,pain score (Visual Analog Score or VAS),"[3]; 100 µg/kg bid group, 90-day treatment period",not significantly improved
same,proportion of patient with low NRS1 (lameness score),[3]; [6],non-significant increase
same,evidence for efficacy in the treatment of osteoarthritis in dogs,[3]; 100 µg/kg twice a day orally for 90 days,do not provide evidence for efficacy
same,proportion of patient experiencing clinically meaningful improvement of LOAD score,"[3]; 500 µg/kg bid group as compared to 100 µg/kg bid, decrease in LOAD score ≥4, Day-90 vs inclusion",higher
same,pain score (Visual Analog Score or VAS),"[3]; 500 µg/kg bid group, statistical significance from Day-60 up to end of treatment",significant decrease
same,change in LOAD score vs that obtained after ligament surgery in dogs with ligament rupture,"[3]; 500 µg/kg bid, after 90 days",comparable
same,Activity,[3]; Bid Dose 100 µg/kg,No
same,Activity,[3]; Bid Dose 500 µg/kg,Yes
same,proportion of patients showing VAS improvement (Δ≤-1),"[3]; end of treatment period, 500 µg/kg bid group as compared to 100 µg/kg bid group",superior
same,temporal evolution of mean LOAD score,"[3]; group 1, 100 µg/kg bid, observed at Day-30, totally disappeared at Day-60 and Day-90",transient decrease
same,temporal evolution of mean LOAD score,"[3]; group 2, 500 µg/kg bid, statistical significance from Day-60 to end of treatment",time-dependent decrease
same,Active Dose in dog,"[3]; proof-of-concept trial in dog with osteoarthritis, bid",0.5 mg/kg
same,clinical symptoms of osteoarthritis in dog,[3]; repeated oral administration at dose ≥ 500 µg/kg bid,improves clinical symptoms
same,tolerance,"[3]; throughout the study, 100 and 500 µg/kg bid for 90 days",well tolerated with no treatment related SAE and no death
same,efficacy,[4],lack of efficacy
same,Activity,[5]; Bid Dose 2000 µg (29 µg/kg),Yes
same,Activity,[5]; Bid Dose 4000 µg (57 µg/kg),Yes
same,Active Dose in Human,"[5]; from clinical Phase 2 trials, assuming body weight of 70 kg",0.029 mg/kg
